Source: US10759831B2, “Peptide compound, production method therefor, and use thereof” (iNtRON Biotechnology, Inc., priority 2014, dated 2020)

Assays:
[1] = system: colon cancer cell line LS174T; test: SRB cell viability assay, colon cancer cell line LS174T; assay type: cell-based; details: Homo sapiens, read-out: Growth inhibition value of cancer cell (IC50)
Protocol: In detail, 190 μl of a cell suspension at a concentration of 3.5×10^4 cells/ml was inoculated in each well of a 96-well microplate. 0.8 μM, 4 μM, 20 μM, or 100 μM of Asperphenin was added to the cell culture medium, and cultured at a temperature of 37° C. for 72 hours under the condition of 5% CO2. After incubation, 50 μl of 50% (v/v) trichloroacetic acid solution (Sigma Aldrich) was added to each well, and then, incubated at a temperature of 4° C. for 30 minutes, to thereby fix the cells thereto. The fixed cells were washed with water five times, and then, dried in the air.
Next, 80 μl of a 0.4% (w/v) SRB aqueous solution (Sigma Aldrich) containing 1% (v/v) acetic acid (DUKSAN) was added to each well, incubated at room temperature for 1 hour to stain cells therein, and the stained cells washed with water and dried. The cells were dissolved by adding 200 μl of 10 mM Tris (pH 10.0) (Sigma Aldrich) to each well, and then, the number of living cells was calculated by measuring the absorbance thereof at 515 nm. […]
From the colon cancer cell lines HCT116 (ATCC), HCT15 (Korean Cell Line Bank), LS174T (Korean Cell Line Bank), RKO(ATCC), and SW480(ATCC), cell growth inhibition concentrations (IC50, μM) were calculated as described in Example 2-1, and the results are shown in Table 4. […]

[2] = system: RKO cells; test: ROS production, DCFH-DA flow cytometry; assay type: cell-based, human; details: 24 hours
Protocol: In detail, as described in Example 2-3, Asperphenin B at the concentration of 2.5 μM, 5 μM, or 10 μM wad added to the RKO cells. Cells were collected after the RKO cells were cultured for 24 hours. In addition, a cell group in which 5 mM of N-acetylcysteine (NAC) (Sigma Aldrich), which is an antioxidant, was added to 5 μM and […] of Asperphenin B was prepared as a comparative group, whereas a cell group in which none of Asperphenin B and NAC was contained as a control.
Afterwards, 2′,7′-dichlorofluorescin diacetate (DCFH-DA) (Sigma Aldrich) having a final concentration of 20 μM was added to the cell culture medium, and then, cultured at a temperature of 37° C. for 30 minutes under the condition of 5% CO2. Cells attached to the cell medium and cells not attached to the cell medium were all collected, washed with cold PBS twice, and then, suspended again in 1 ml of PBS to measure intensity of 2′,7′-dichlorofluorescin (DCF) by using a BD FACSCalibur flow cytrometer (manufactured by BD Biosciences).

[3] = system: cell cycle-related proteins in RKO cells; test: Immunoblotting of cell cycle-related proteins; assay type: cell-based, human
Protocol: As described in Example 2-3, cells were obtained in a way that Asperphenin B at the concentration of 0.625 μM, 1.25 μM, 2.5 μM, 5 μM, or 10 μM was added to the RKO cells, and then, cultured for 48 hours. However, cells were obtained in a way that Asperphenin B at the concentration of 5 μM was added to the RKO cells, and then, cultured for 0 to 48 hours. Then, proteins were obtained from the obtained cells.
Regarding the expression of the cell cycle-related proteins, anti-p-cyclin B1(Ser147) antibody (Cell Signaling Technology), anti-cyclin B1 antibody (Santa Cruz), anti-p-cdc2(Tyr15) antibody (Cell Signaling Technology), anti-cdc2 antibody (Santa Cruz), and anti-β-actin antibody (Santa Cruz) were used to perform immunoblotting thereon.

CCCCCCCCC[C@@H](O)CC(=O)N[C@@H](CC(N)=O)C(=O)N[C@@H](CCC(N)=O)C(=O)N[C@H](CC(=O)c1cc(C)cc(O)c1C(=O)c1c(O)cccc1O)CC(C)C [Asperphenin B]
IC50 [1]: 1840 nM | Production of ROS relative to the control [2]: about 2.4 times | Ratio of cells producing ROS ([2]; 2.5 μM): 8.14% | Ratio of cells producing ROS ([2]; 5 μM): 13.86% | Ratio of cells producing ROS ([2]; 5 μM Asperphenin B + 5 mM NAC): 1.41% | Ratio of cells producing ROS ([2]; 10 μM): 14.26% | Ratio of cells producing ROS ([2]; 10 μM Asperphenin B + 5 mM NAC): 2.55% | Expression of p-cdc2 (Tyr15) protein ([3]; 5 μM, 0 to 48 hours, FIG. 5B): increased in time-dependent manner | Expression of p-cyclin B1 (Ser147) ([3]; 5 μM, 0 to 48 hours, FIG. 5B): highest at about 24 hours | Expression of non-active p-cyclin B1 (Ser147) protein ([3]; 48 hours, 2.5 μM, FIG. 5A): increased | Expression of p-cyclin B1 (Ser147) protein and cyclin B1 protein ([3]; 48 hours, 5 μM and 10 μM, FIG. 5A): decreased | Expression of non-active p-cdc2 (Tyr15) protein ([3]; 48 hours, 0.625-10 μM, FIG. 5A): increased in a concentration-dependent manner
